Like-named read-outs stand apart in the source and are kept apart here.
What was measured:
[1] = system: DU145 prostate cancer cells; assay: Growth inhibition by MTT staining, DU145; assay type: cell-based; conditions: DU-145, 96 h, Human tumor cells, treated four days
Description: (§1) Growth inhibitory effects of PCNA-I1 and PCNA-I2 were assessed in human cancer cell lines, mouse cancer cell lines, immortalized mouse cell lines, and human primary cell lines. Specifically, growth inhibitory effects of PCNA-I1 and PCNA-I2 were assessed using MTT staining in the following cells lines: 1) human cancer cell lines including LNCaP (androgen receptor […]), 22Rv1, DU-145, LAPC-4, and PC-3 (androgen receptor […]) prostate cancer cells; MCF-7 and T47D breast cancer cells; A375 and MDA-MB435 melanoma cells; 2) mouse cancer cell lines including TRAMP-C2RE3 prostate cancer cells, B16 and K1735 melanoma cells, UV2237 fibrosarcoma cells, and CT-26 colon cancer cells; 3) immortalized mouse lung cell lines and mouse endothelial cell lines; and 4) primary human cell lines including umbilical endothelial cells (HUVEC, PromoCell, Heidelberg, Germany), primary bone marrow mesenchymal stem cells (HuMSC, PromoCell), primary human mammary epithelial cells (HuBrEC, Lonza, Walkersville, Md.), primary human prostate epithelial cells (HuPrEC, Lonza), and primary mouse spleen lymphocytes (isolated in this laboratory), and primary mouse bone marrow stromal cells (isolated in this laboratory). […]
(§2) IC50 values were derived from growth inhibition curves. […] Inhibition of cell growth was calculated using the formula: growth inhibition (%)=(1−A570 of treated/A570 of control)×100. […]

[2] = system: 22Rv1 prostate cancer cells; assay: Growth inhibition by MTT staining, 22Rv1; assay type: cell-based; conditions: 22Rv1, 96 h, Human tumor cells, treated four days
Description: as §1, §2

[3] = system: UV2237 fibrosarcoma cells; assay: Growth inhibition by MTT staining, UV2237; assay type: cell-based; conditions: 96 h, Mouse, treated four days
Description: as §1, §2

[4] = system: CT26-R500 murine colon cancer cell line; assay: Growth inhibition by MTT staining, CT26-R500; assay type: cell-based; conditions: Mouse tumor cells; cell line not given; read-out: IC50 Values, cell line cell blank (third row below UV2237)
Description: as §1, §2

[5] = system: Prostate Endothelial cells (Mu-Pr-Endo); assay: Growth inhibition, mouse prostate endothelial cells; assay type: cell-based; conditions: Endothelial cell
Description: as §1, §2

LNCaP cells [6] = assay: FACS analysis, LNCaP; assay type: cell-based, Human; conditions: particularly at 10 μM; FIG. 16
Description: (§3) Fluorescence-activated cell sorting (FACS) analysis was performed on both PC-3 cells and LNCaP cells using PCNA-I1. Specifically, cells were treated with 1 or 10 μM PCNA-I1 and sampled for the flow cytometry analysis at 24 H, 48 H, and 72 H. Expression of DNA damage and apoptosis-related proteins in PC-3 cells and LNCaP cells was also determined. Cisplatin, a well-known drug that induces DNA damage and apoptosis, was included in the experiment. LNCaP cells were treated for 6 H, 12 H, or 18 H with 10 μM PCNA-I1, 10 μM cisplatin, or both.

LNCaP cells [7] = assay: DNA damage, apoptosis and cell cycle proteins by immunoblot, LNCaP; assay type: cell-based, Human
Description: as §3
To further explore the differential effects of PCNA-I1 on LNCaP and PC-3 cells, the effects of PCNA-I1 and cisplatin on expression of cell cycle- and apoptosis-related proteins in the two cell lines were compared. LNCaP cells and PC-3 cells were treated with 1 μM PCNA-I1 and/or 5 μM cisplatin for 12 H, 18 H, or 24 H and cell lysates were sampled for immunoblotting.

22Rv1 cells = assay: 22Rv1 tumor model in male nude mice; assay type: in vivo; conditions: 10 mg/kg i.p., three times/week
Description: The therapeutic effects of PCNA-I1 were evaluated in LNCaP cells and 22Rv1 tumor models. LNCaP or 22Rv1 cells (1-2×10^6 cells in gelfoam) were implanted into the subcutis of male nude mice. From four to five days later, tumor-bearing mice were intraperitoneally injected with 10 mg/kg or 50 mg/kg of PCNA-I1. The therapy was continued at three times/week until termination of experiments. Control and treated tumor-bearing mice were monitored daily. Mouse body weight was recorded for toxicity evaluation twice a week and tumor size was measured using calipers twice a week. The experiments were terminated when mice in control groups were moribund. Additionally, to further evaluate potential liver and renal toxicity of PCNA-I1, the blood of tumor-bearing mice were sampled after the treatment with PCNA-I1 for 8 weeks.

SMILES: Cc1ccsc1C(=O)N/N=C/c1ccc2ccccc2c1O [PCNA-I1]
- IC50 [1]: 160 nM
- IC50 [2]: 180 nM
- IC50 [3]: 250 nM
- IC50 [4]: 70 nM
- IC50 ([5]; Mouse, Blood Vessel, normal cells, read-out: IC50 Values, Prostate Endothelial): 680 nM
- IC50 ([5]; Mus musculus, FIG. 2(C), read-out: IC50, Mu-Pr-Endo): 677 nM
- Apoptosis, LNCaP (sub-G1 population) (LNCaP cells [6]): induced significant apoptosis
- Expression of retinoblastoma (Rb) and cyclin D1 (LNCaP cells [7]; LNCaP and PC-3, 1 μM PCNA-I1 and/or 5 μM cisplatin, 12-24 H): moderately downregulated expression of cell cycle-regulating proteins
- Phosphorylation of p53, single agent (LNCaP cells [7]; LNCaP, 10 μM): induced
- Expression of p21 protein (LNCaP cells [7]; LNCaP, 10 μM PCNA-I1 and/or 10 μM cisplatin): enhanced expression of p21 protein at 6 H and 12 H
- PARP cleavage, single agent (LNCaP cells [7]; LNCaP, 10 μM alone): induced PARP cleavage
- DNA double strand break (γH2AX induction), single agent (LNCaP cells [7]; LNCaP, 10 μM alone, 6-18 H, FIG. 17(A)): induced moderate double strand break (DSB) of DNA
- Tumor growth, 22Rv1 model (22Rv1 cells): retarded tumor growth
